The source of these data is the RepoRT retention time repository (doi:10.1016/j.jchromb.2020.122105).

Conditions in all cases: stereoisomer not certain
The nature of data set [1]: RP, Waters CORTECS T3, 100 × 2.1 mm, 2.7 µm, 0.3 mL/min, estimated dead time 0.73 min; A: water + 0.1% formic acid, pH 3; B: methanol + 0.1% formic acid, pH 3; gradient (min/%B) 0/5 5/5 25/100 30/100 30.1/5 35/5.
Data set [2] in a line: RP, Waters CORTECS T3, 100 × 2.1 mm, 2.7 µm, 0.3 mL/min, estimated dead time 0.73 min; A: water + 0.1% formic acid, pH 3; B: methanol + 0.1% formic acid, pH 3; gradient (min/%B) 0/0 5/0 25/100 30/100 30.1/0 35/0.
Data set [3] in a line: RP, Waters CORTECS T3, 100 × 2.1 mm, 2.7 µm, 0.2 mL/min, estimated dead time 1.1 min; A: water + 0.1% formic acid, pH 3; B: methanol + 0.1% formic acid, pH 3; gradient (min/%B) 0/0 1/0 6/5 30/100 35/100 35.1/0 40/0.
A short description of data set [4]: RP, Waters CORTECS T3, 100 × 2.1 mm, 2.7 µm, 0.1 mL/min, estimated dead time 2.2 min; A: water + 0.1% formic acid, pH 3; B: methanol + 0.1% formic acid, pH 3; gradient (min/%B) 0/0 1/0 6/5 30/100 35/100 35.1/0 40/0.
The nature of data set [5]: RP, Waters CORTECS T3, 100 × 2.1 mm, 2.7 µm, 0.15 mL/min, estimated dead time 1.5 min; A: water + 0.1% formic acid, pH 3; B: methanol + 0.1% formic acid, pH 3; gradient (min/%B) 0/0 1/0 6/5 30/100 35/100 35.1/0 40/0.
Data set [6] in a line: RP, Waters CORTECS T3, 100 × 2.1 mm, 2.7 µm, 0.3 mL/min, estimated dead time 0.73 min; A: water + 0.1% formic acid, pH 3; B: methanol + 0.1% formic acid, pH 3; gradient (min/%B) 0/0 1/0 6/5 30/100 35/100 35.1/0 40/0.
A short description of data set [7]: RP, Waters CORTECS T3, 100 × 2.1 mm, 2.7 µm, 0.25 mL/min, estimated dead time 0.88 min; A: water + 0.1% formic acid, pH 3; B: methanol + 0.1% formic acid, pH 3; gradient (min/%B) 0/0 1/0 6/5 30/100 35/100 35.1/0 40/0.
Data set [8] can be described thus: RP, Waters CORTECS T3, 100 × 2.1 mm, 2.7 µm, 0.1 mL/min, estimated dead time 2.2 min; A: water + 0.1% formic acid, pH 3; B: methanol + 0.1% formic acid, pH 3; gradient (min/%B) 0/5 5/5 25/95 25.1/100 35/100 35.1/5 45/5.
Data set [9] is described as follows: RP, Waters CORTECS T3, 100 × 2.1 mm, 2.7 µm, 0.3 mL/min, estimated dead time 0.73 min; A: water + 0.1% formic acid, pH 3; B: methanol + 0.1% formic acid, pH 3; gradient (min/%B) 0/5 5/5 25/95 25.1/100 35/100 35.1/5 45/5.
Data set [10] is described as follows: RP, Waters ACQUITY UPLC BEH C18, 100 × 2.1 mm, 1.7 µm, 0.1 mL/min, estimated dead time 2.2 min; A: water + 0.1% formic acid, pH 3; B: methanol + 0.1% formic acid, pH 3; gradient (min/%B) 0/5 5/5 25/100 30/100 30.1/5 35/5.
Data set [11] can be described thus: RP, Waters ACQUITY UPLC BEH C18, 100 × 2.1 mm, 1.7 µm, 0.1 mL/min, estimated dead time 2.2 min; A: water + 0.1% formic acid, pH 3; B: methanol + 0.1% formic acid, pH 3; gradient (min/%B) 0/5 5/5 25/95 25.1/100 35/100 35.1/5 45/5.
Test in data set [12]: as above
This is another data set of the same source.

Data set [13] in a line: RP, Waters CORTECS T3, 100 × 2.1 mm, 2.7 µm, 0.3 mL/min, estimated dead time 0.73 min; A: water + 0.1% formic acid, pH 3; B: methanol + 0.1% formic acid, pH 3; gradient (min/%B) 0/0 5/0 25/100 30/100 30.1/0 35/0. The source holds these as a separate data set.
Data set [14] is described as follows: RP, Waters CORTECS T3, 100 × 2.1 mm, 2.7 µm, 0.2 mL/min, estimated dead time 1.1 min; A: water + 0.1% formic acid, pH 3; B: methanol + 0.1% formic acid, pH 3; gradient (min/%B) 0/0 1/0 6/5 30/100 35/100 35.1/0 40/0. This is another data set of the same source.
The nature of data set [15]: RP, Waters CORTECS T3, 100 × 2.1 mm, 2.7 µm, 0.3 mL/min, estimated dead time 0.73 min; A: water + 0.1% formic acid, pH 3; B: methanol + 0.1% formic acid, pH 3; gradient (min/%B) 0/0 1/0 6/5 30/100 35/100 35.1/0 40/0. This is another data set of the same source.
A short description of data set [16]: RP, Thermo Scientific Hypercarb, 150 × 2.1 mm, 5 µm, 0.1 mL/min, estimated dead time 3.3 min; A: water + 0.1% formic acid, pH 3; B: methanol + 0.1% formic acid, pH 3; gradient (min/%B) 0/5 5/5 20/100 35/100 35.1/5 45/5.
Data set [17] is described as follows: RP, Waters CORTECS T3, 100 × 2.1 mm, 2.7 µm, 0.15 mL/min, estimated dead time 1.5 min; A: water + 0.1% formic acid, pH 3; B: methanol + 0.1% formic acid, pH 3; gradient (min/%B) 0/5 5/5 25/95 25.1/100 35/100 35.1/5 45/5.
Data set [18] can be described thus: RP, Waters ACQUITY UPLC BEH C18, 100 × 2.1 mm, 1.7 µm, 0.2 mL/min, estimated dead time 1.1 min; A: water + 0.1% formic acid, pH 3; B: methanol + 0.1% formic acid, pH 3; gradient (min/%B) 0/5 5/5 25/100 30/100 30.1/5 35/5.
Data set [19] can be described thus: RP, Waters CORTECS T3, 100 × 2.1 mm, 2.7 µm, 0.25 mL/min, estimated dead time 0.88 min; A: water + 0.1% formic acid, pH 3; B: methanol + 0.1% formic acid, pH 3; gradient (min/%B) 0/5 5/5 25/95 25.1/100 35/100 35.1/5 45/5.
Data set [20] in a line: RP, Waters CORTECS T3, 100 × 2.1 mm, 2.7 µm, 0.2 mL/min, estimated dead time 1.1 min; A: water + 0.045% formic acid + 0.11% ammonium hydroxide, pH 7; B: methanol; gradient (min/%B) 0/5 5/5 25/95 25.1/100 35/100 35.1/5 45/5.
Data set [21] in a line: RP, Waters ACQUITY UPLC BEH C18, 100 × 2.1 mm, 1.7 µm, 0.1 mL/min, estimated dead time 2.2 min; A: water + 0.1% formic acid, pH 3; B: methanol + 0.1% formic acid, pH 3; gradient (min/%B) 0/5 5/5 25/95 25.1/100 35/100 35.1/5 45/5. The source holds these as a separate data set.
The nature of data set [22]: RP, Waters ACQUITY UPLC BEH C18, 100 × 2.1 mm, 1.7 µm, 0.2 mL/min, estimated dead time 1.1 min; A: water + 0.025% formic acid + 20 mM ammonium acetate + 0.055% ammonium hydroxide, pH 7; B: methanol; gradient (min/%B) 0/5 5/5 25/100 30/100 30.1/5 35/5.
Test in data set [23]: as above
The source holds these as a separate data set.

Data set [24] in a line: HILIC, Merck SeQuant ZIC-HILIC, 150 × 2.1 mm, 5 µm, 0.75 mL/min, estimated dead time 0.44 min; A: water + 10 mM ammonium formate, pH 6; B: 5% water + 95% acetonitrile + 10 mM ammonium formate, pH 6; gradient (min/%B) 0/95 5/95 20/57 25/57 30/95 40/95.
Data set [25] in a line: HILIC, Merck SeQuant ZIC-HILIC, 150 × 2.1 mm, 5 µm, 0.75 mL/min, estimated dead time 0.44 min; A: water + 0.1% acetic acid + 10 mM ammonium acetate, pH 4; B: 5% water + 95% acetonitrile + 0.1% acetic acid + 10 mM ammonium acetate, pH 4; gradient (min/%B) 0/95 5/95 20/57 25/57 30/95 40/95.
The nature of data set [26]: RP, Waters ACQUITY UPLC BEH C18, 100 × 2.1 mm, 1.7 µm, 0.1 mL/min, estimated dead time 2.2 min; A: water + 0.045% formic acid + 0.11% ammonium hydroxide, pH 7; B: methanol; gradient (min/%B) 0/5 5/5 25/95 25.1/100 35/100 35.1/5 45/5.

On to `NC(Cc1ccc(Oc2cc(I)c(O)c(I)c2)c(I)c1)C(=O)O` (configuration not stated) [3,3',5'-TRIIODOTHYRONINE], for which the LC retention time is 17.3 min in data set [1]; 17.9 min in [2]; 21.4 min in data set [3]; 19.1 min in data set [4]; 22.5 min in data set [5]; 20.2 min in [6]. In addition, the LC retention time in data set [7] is 20.8 min; in [8] it was 21.8 min; in data set [9] it was 17.9 min; in data set [10], 21.6 min; in [11], 22.2 min; in [12], 22.2 min.

With `O=C(O)c1ccc(=O)[nH]c1` [6-HYDROXYNICOTINATE], the LC retention time in data set [1] was 2.27 min; in data set [2], 3.6 min; in data set [3] it was 5.13 min; in data set [4], 3.28 min; in data set [5], 6.98 min; in [6] it was 3.45 min. For the same compound, the LC retention time in data set [7] is 4.17 min; in [8], 6.46 min; in data set [9], 2.17 min; in data set [10], 6.36 min; in data set [11], 6.29 min; in [12], 2.75 min.

Take `O=C(O)CCCCC1SCC2NC(=O)NC21` (configuration not stated) [BIOTIN]: the LC retention time in data set [1] is 10.7 min; in [2], 11.7 min; in data set [13], 11.7 min; in data set [4] it was 12.1 min; in data set [14], 13.7 min; in data set [5], 14.9 min. The LC retention time is 12.3 min in [15]; 15.3 min in data set [8]; 30.7 min in data set [16]; 13.3 min in data set [17]; 12.1 min in data set [18]; 11.4 min in data set [19]. Moreover, the LC retention time in data set [10] is 15.2 min; in data set [20], 1.35 min; in data set [11] it was 15.5 min; in data set [21], 15.5 min; in data set [22], 3.98 min; in data set [23], 6.2 min. Further, the values for the LC retention time in data set [24] and in data set [25] were 7.34 min and 8.19 min, respectively.

For the compound `Nc1nc2nc[nH]c2c(=O)[nH]1` [GUANINE], the LC retention time is 2.45 min in data set [1]; 6.86 min in data set [3]; 3.48 min in data set [4]; 9.27 min in data set [5]; 5.85 min in [7]; 2.71 min in [8]. In addition, the LC retention time in [9] is 2.38 min; in data set [10], 2.74 min; in data set [11], 2.66 min; in [12] it was 2.66 min.

Turning to `CCCCCCCCCCCCCCCC(O)C(N)CO` (configuration not stated) [SPHINGANINE], the LC retention time in data set [1] is 22.2 min; in data set [2], 22.4 min; in data set [3], 27.4 min; in data set [4] it was 24.1 min; in data set [5] it was 28.2 min; in data set [6] it was 26.1 min. The LC retention time was 26.6 min in [7]; 26.6 min in data set [8]; 23 min in data set [9]; 26.4 min in [10]; 28.1 min in data set [11]; 27.9 min in data set [12]. Also, the LC retention time in [26] is 29.1 min.
